Columns and labels:
[1] = Pharmacokinetics and organ distribution after intravenous administration of Sunitinib, Compound 1 and Compound 2 in mice; design: AUCiv: unit not given beside the values; details: mice
Excerpt: Relative Exposure(RE)=AUCi sample/AUCi control
AUCi—area under curve for the i^th organ or tissue; RE>1 indicates targeting at the organ or tissue, with larger RE indicating greater targeting; RE≦1 indicates non-targeting.
RTE refers to the multiple of the percent of drug content in a tissue of sample group with respect to total drug amount in the body vs. that in a control group. Positive RTE values indicate enhanced targeting effects and the more positive the more the multiple of enhancement and the more the enhanced targeting. In contrast, negative RTE values indicate reduced targeting effects. Value 0 indicate no influence to the tissue.
0.083 h, 0.25 h, 0.5 h, 1 h, 3 h, 8 h post injection, blood was taken by eyeball removal and the mice were sacrificed by cervical dislocation. Tissues were perfused with normal saline and livers and kidneys were removed and cleaned with normal saline. The blood samples were centrifuged to obtain supernatants and stored at −20° C. 50 μL plasma sample and 50 μL internal standard (clozapine) working solution was vortexed with 300 μL MeOH and then centrifuged. 150 μL upper organic phase was obtained and mixed with 150 μL water, followed by centrifugation. 10 μL supernatant was sampled for analysis. The tissue samples were weighted and mixed homogeneously with 10 times weight of water. Since the samples were 10-time diluted, the concentration of the tissue would be 10 times the results determined. The heart tissue was 5-time diluted. 100 μL homogenate was mixed with 50 μL internal standard (clozapine) working solution and 300 μL MeOH and then centrifuged. 150 μL upper organic phase was obtained and mixed with 150 μL water, followed by centrifugation. 10 μL supernatant was sampled for analysis.

[2] = Oral route (intragastric gavage) study of Sunitinib and compounds 1 and 2 in mice; assay type: in vivo; design: AUCpo: unit not given beside the values; details: mice, intragastric gavage
Excerpt: Animal experiments: 24 mice in each group were divided into 8 sub-groups.

[3] = Stability of compounds 1 and 2 in MeOH stock solution and with biomass; assay type: physicochemical
Excerpt: No prodrug was detected in organs except for spleen during processing. […] The prodrugs may be converted to Sunitinib or other metabolite during processing or in vivo.

pSTAT3 = test: Effects on STAT3 phosphorylation in A549 cell line; assay type: cell-based, human; details: 10 μM
Experimental: (§1) For in vitro tests, compounds were directly dissolved in 10 mM DMSO and stored at −20° C. For in vivo tests, the compounds were dissolved in DMSO and neutralized by Tween 80 (DMSO:Tween=1:1) and further neutralized by PBS (pH 7.4). The final concentrations of DMSO and Tween-80 were 5%.

[4] = test system: A549; NCI-H460; 786-O; Caki-1; HT-29; MCF-7; test: 72 hour cytotoxicity (CCK8) in different cell lines; assay type: cell-based, human; details: 72 hours, CCK8; FIG. 5a-f
Excerpt: A549 human non-small cell lung cancer cell line, NCI-H460 human non-small cell lung cancer cell line, 786-O human renal cell line, Caki-1 human renal cell line, HT-29 human colon cancer cell line, MDA-MB-231 human breast cancer cell line, and MCF-7 human breast cancer cell line was purchased from Chinese Academy of Science Shanghai Branch. PLC/PRF-5 human hepatoma cell line and Hepal-6 mouse hepatoma cell line were obtained from Institute of Biochemistry and Cell Biology, SIBS, CAS (SIBCB). Cell lines A549, Caki-1, HT-29, MDA-MB-231, MCF-7, PLC/PRF-5 and Hepal-6 were cultured in DMEM medium (Gibco, Life Technologies, China) and cell lines NCI-H460 and 786-O were cultured in RPMI-1640 medium (Gibco, Life Technologies, China). 10% HI fetal bovine serum was purchased from Gibco, Life Technologies, USA and 1% penicillin/streptomycin was obtained from Hyclone.
Approx. 2,000 cells in 50 μL complete medium were plated on each well of a 96-well plate and incubated at 37° C., 5% CO2 overnight. Drugs at concentrations of 0.02 to 10 μM were dissolved in 0.1% DMSO, followed by addition into each well. After incubation for 72 hours, 10 μL CCK8 (Dojindo) was added into each well, followed by incubation at 37° C. for another 4 hours. The OD values were obtained by TECAN Microplate Reader at 450 nm.
as §1

786-O cell or A549 cell = test: Cell morphology and survival rate after 4 to 8 hours incubation; assay type: cell-based, human
[5] = Acute toxicity test: maximum tolerance dosage (MTD) determination; assay type: in vivo, BALB/c mice
Experimental: Methods: Femal BALB/c mice, 4-5 weeks old, weighted greater than 17 g, were used for the test. […] The body weights and conditions of the mice were recorded.
In contrast, the body weights of mice in compound 2 group increased 6.0% in average.
To further explore the toxicity of the compounds, blood was collected after 14-day treatment of drugs and critical biochemical index were analyzed.

cancer cell xenograft = test: Pharmacodynamic tests on mice xenograft transplantation model; assay type: in vivo
Experimental: as §1
5×10^6 cancer cells were subcutaneously injected to the right side of mouse. Drug was intraperitoneally injected at dosages of 1.5 mg/kg, 7.5 mg/kg, 30 mg/kg to the mice, once a day, for 2 weeks when average tumor size reached 75 to 150 mm^3. The size of the tumor was measured every other day. […] Compound 1 had less efficacy.
We then performed the test through oral route. 5×10^6 cancer cells were subcutaneously injected to the right side of mouse. Drug was orally administered at dosages of 5 mg/kg, 15 mg/kg, 45 mg/kg to the mice, once a day, for 2 weeks when average tumor size reached 75 to 150 mm^3. The size of the tumor was measured every other day.

[6] = 5.13 mg/kg Compound 1, 5.32 mg/kg Compound 2, 5.14 mg/kg Sunitinib malate, All (sum of organs and plasma)
[7] = 5.13 mg/kg Compound 1, 5.32 mg/kg Compound 2, 5.14 mg/kg Sunitinib malate, heart
[8] = 5.13 mg/kg Compound 1, 5.32 mg/kg Compound 2, 5.14 mg/kg Sunitinib malate, kidney
[9] = 5.13 mg/kg Compound 1, 5.32 mg/kg Compound 2, 5.14 mg/kg Sunitinib malate, liver
[10] = 5.13 mg/kg Compound 1, 5.32 mg/kg Compound 2, 5.14 mg/kg Sunitinib malate, lung
[11] = 5.13 mg/kg Compound 1, 5.32 mg/kg Compound 2, 5.14 mg/kg Sunitinib malate, plasma
[12] = 5.13 mg/kg Compound 1, 5.32 mg/kg Compound 2, 5.14 mg/kg Sunitinib malate, spleen
[13] = 19.248 mg/kg Compound 1, 20 mg/kg Compound 2, 20 mg/kg Sunitinib malate
[14] = oral once a day for 14 days, 175 mg/kg
[15] = repeated test, oral once a day, 200 mg/kg

In the case of `CCN(CC)CCNC(=O)c1c(C)[nH]c(C=C2C(=O)N(CC(=O)Oc3ccccc3)c3ccc(F)cc32)c1C` [Compound 2, N-[2-(diethylamino)ethyl]-5-[(5-fluoro-2-oxo-1-(phenylcarboxymethyl)-2,3-indolin-3-ylmethylene)]-2,4-dimethyl-1H-pyrrolidine-3-carboxamide], the AUC [1, 6] is reported as 3926.9 ng·h/mL, the Cmax [1, 6] is reported as 2673.1 ng/mL and the AUC [1, 7] is reported as 97.0 ng·h/mL. It also gave a Cmax [1, 7] of 122.4 ng/mL, an AUC [1, 8] of 474.2 ng·h/mL and a Cmax [1, 8] of 258.0 ng/mL. For the same compound, the AUC [1, 9] was 1047.1 ng·h/mL, the Cmax [1, 9] was 742.7 ng/mL and the AUC [1, 10] was 1235.0 ng·h/mL. For the same compound, the Cmax [1, 10] was 763.8 ng/mL, the AUC [1, 11] was 408.8 ng·h/mL and the AUCall [1, 11] was 408.8 ng·h/mL. The Cl [1, 11] was 324.9 mL/h, the Cmax [1, 11] was 564.4 ng/mL and the Tmax [1, 11] was 4.8 min. For the same compound, the V [1, 11] was 406.1 mL, the AUC [1, 12] was 664.8 ng·h/mL and the Cmax [1, 12] was 221.8 ng/mL. The AUCiv ([1]; Div 3.86, in ng·h/mL) was 408.8, the “Cmax, times than that of the control” value ([1]; control = Sunitinib) was “approx. 5 times” and the “RTE analysis: distribution proportions in organs” value ([1]; vs Sunitinib control) was “increased distribution proportions in spleen and lung, decreased proportions in heart and kidney but great enhancement in plasma”. It also gave an RE ([1]; vs Sunitinib control, heart) of 0.13, an RTE ([1]; vs Sunitinib control, heart) of −0.55 and an RE ([1]; vs Sunitinib control, kidney) of 0.16. For the same compound, the RTE ([1]; vs Sunitinib control, kidney) was −0.45, the RE ([1]; vs Sunitinib control, liver) was 0.47 and the RTE ([1]; vs Sunitinib control, liver) was 0.66. For the same compound, the RE ([1]; vs Sunitinib control, lung) was 0.28, the RTE ([1]; vs Sunitinib control, lung) was −0.01 and the RE ([1]; vs Sunitinib control, plasma) was 1.12. The RTE ([1]; vs Sunitinib control, plasma) was 2.93, the RE ([1]; vs Sunitinib control, spleen) was 0.22 and the RTE ([1]; vs Sunitinib control, spleen) was −0.23. The “AUC, times higher than Sunitinib” value [2] was “approx. 3.5 times”, the “AUC0→∞” value [2, 13] was 61.5 ng·h/mL and the Cl [2, 13] was 4094.7 mL/h. It also gave a Cmax [2, 13] of 27.00 ng/mL, a Tmax [2, 13] of 1.50 h and a t1/2 [2, 13] of 3.89 h. The AUCpo ([2]; Dpo 15.00, in ng·h/mL) was 951.1, the “stability in the event of coexisting with biomass” value ([3]; coexisting with biomass) was “easy to degrade” and the “stability in MeOH stock solution” value ([3]; stability test period: 7 days) was “stable”. For the same compound, the “inhibition of pSTAT3” value (pSTAT3) was “strong inhibition”, the “IC50 values among several cell lines” value [4] was “comparable” and the “tumor killing effects / cytotoxicity” value [4] was “relatively strong tumor killing effects”. The cell survival (786-O cell or A549 cell; 786-O cell or A549 cell, incubated for 8 hours) was “mass cell death”, the cell morphology (786-O cell or A549 cell; cancer cells incubated for 4 hours) was “changed to round and suffered from stress” and the “critical biochemical index (AST, ALT, CHE, urate, blood urea nitrogen, glucose, LDH, CK, CKMB)” value ([5]; blood after 14-day treatment, 200 mg/kg) was “except for AST and ALT, these indices were all within normal ranges”. The “body weights increased in average” value [5, 14] was 6.0%, the “condition of the mice” value [5, 14] was “performed similarly with negative control group” and the “influence on body weight” value ([5]; repeated test, oral once a day, 100 mg/kg) was “little influence on body weight”. For the same compound, the “body weights increased in average” value [5, 15] was 6.0%, the “condition of the mice” value [5, 15] was “performed similarly with negative control group” and the “efficacy on tumor size” value (cancer cell xenograft; intraperitoneally injected 1.5, 7.5, 30 mg/kg once a day for 2 weeks) was “improved efficacy than Sunitinib”. For the same compound, the “efficacy on tumor size” value (cancer cell xenograft; orally administered 5, 15, 45 mg/kg once a day for 2 weeks) was “improved efficacy than Sunitinib”.
